Experimental data taken from patent publication EP4257135A1, “BENZIMIDAZOLE DERIVATIVES FOR PULMONARY ARTERIAL HYPERTENSION” (Justus-Liebig-Universität Gießen, priority 2022, dated 2023).

Test system: PAH-FBs
Assay: Cell proliferation by BrdU incorporation in PAH fibroblasts
Type: cell-based, human
Conditions: PAH-FBs isolated ex vivo; various concentrations; vs DMSO; 24 h
Text: Diese Untersuchungen führten zu der Erkenntnis, dass die epigenetische Regulation der entwicklungsbedingten TF-Expression in der Lunge durch Modulation der EP300/CREBBP-Funktion rückgängig gemacht werden kann. Die Wirkung des niedermolekularen Inhibitors (Substanz, Wirkstoff) SGC-CBP30 auf die Proliferation von Gefäßzellen, die Apoptose sowie die Gen- und Proteinexpression wurde mit Hilfe geeigneter Assays nach der Transfektion untersucht. Nachdem Zellen zur Subkonfluenz gewachsen sind, wurde ihnen mit steigenden Konzentrationen der selektive EP300-Inhibitor SGC-CBP30 (Sigma, Katalognummer: SML1133) hinzugefügt. Die aus PAH-Patienten isolierten FBs wurden also mit dem isoformselektiven HAT-Inhibitor SGC-CBP30 behandelt. Gleichzeitig wurde den Zellen das Lösungsmittel DMSO (Sigma) mit entsprechenden Konzentrationen hinzugefügt. […]
• A: PAH-FBs wurden mit siRNAs (siP300) behandelt, die auf EP300 abzielen (n=3), um die genspezifische funktionelle Rolle von EP300 bei der Hyperproliferation ex vivo 48 Stunden nach der Transfektion zu untersuchen. […] Skalenbalken: 50 µm. • E: Die Wirkung der P300-Inhibition (200 µM) auf den Gefäßumbau wurde durch Quantifizierung der prozentualen medialen Wanddicke in den mit dem EP300/CREBBP-Inhibitor SGC-CBP30 inkubierten PCLS im Vergleich zu den mit DMSO inkubierten Kontrollen bewertet. […]

Q: `COc1ccc(CCc2nc3cc(-c4c(C)noc4C)ccc3n2C[C@H](C)N2CCOCC2)cc1Cl` [SGC-CBP30, 2-[2-(3-Chloro-4-methoxyphenyl)ethyl]-5-(3,5-dimethyl-1,2-oxazol-4-yl)-1-[(S)-2-(morpholin-4-yl)propyl]-1H-benzimidazole] was tested. Which “hyperproliferativer Phänotyp (Zellproliferation, BrdU)” value did it give?
A: Its value is “schwächte den hyperproliferativen Phänotyp und die Apoptoserate von PAH-FBs und PAH-SMCs deutlich ab”.
